Assay results as given in patent US20060199241A1, “Electrochemically and optically monitoring cleaving enzyme activity” (priority 2005, published 2006).

System: APO-GDH
Experiment: Homogeneous optical and electrochemical assay with GDH and PQQ
Type: biochemical
Details: APO-GDH 1 μM, 2 mM CaCl2, 40 mM glucose, 50 μM PMS, redox indicator (DCIP, resazurin or thionine)
Experimental: Homogeneous Optical and Electrochemical Assay for DNA with GDH and PQQ (See FIG. 8) The PQQ solutions (variable concentrations) included APO-GDH (1 μM), 2 mM CaCl2, and 40 mM Glucose. 50 μM PMS and a redox indicator (0.1-0.2 mM DCIP, 0.025 mM resazurin, or 0.05 mM thionine) were also added. PQQ at 0.1 nM was detectable.

With `O=C(O)c1cc(C(=O)O)c2c(n1)C(=O)C(=O)c1cc(C(=O)O)[nH]c1-2` [PQQ, pyrroloquinoline quinone] the “PQQ concentration detectable (GDH enzyme activity)” value was 0.1 nM.
